Results as given in article PMC9017349, “Spiropyrimidinetriones: a Class of DNA Gyrase Inhibitors with Activity against Mycobacterium tuberculosis and without Cross-Resistance to Fluoroquinolones” (Antimicrobial Agents and Chemotherapy, 2022).
≈ marks a conversion by molar mass, not a printed value.

Experiments:
M. tuberculosis H37Rv [1] = test: MIC against M. tuberculosis H37Rv in 7H9 medium with various supplements; assay type: cell-based, Mycobacterium tuberculosis; conditions: for MIC: Mycobacterium tuberculosis
Mtb = assay type: in vivo; conditions: 100 mg/kg, day 21; limit 1.57 log10 CFU
[2] = tested on: M. tuberculosis Erdman pFCA-LuxAB (Erdman Lux); conditions: BALB/c mice, 100 mg/kg p.o. daily, 12 days
H37Rv (RecA) = assay type: cell-based, Mycobacterium tuberculosis
[3] = tested on: iniB promoter reporter in M. tuberculosis H37Rv; assay type: cell-based, Mycobacterium tuberculosis
[4] = tested on: recA promoter reporter in M. tuberculosis H37Rv; assay type: cell-based, Mycobacterium tuberculosis
M. tuberculosis H37Rv [5] = test: microbe, parasite or virus in culture; assay type: cell-based; conditions: Mycobacterium tuberculosis, read-out: MIC90, H37Rv
M. tuberculosis H37Rv [6] = test: microbe, parasite or virus in culture; assay type: cell-based; conditions: for MBC relative to MIC / MBC: CARA; for MIC / MBC: Mycobacterium tuberculosis, 168 h; for MIC: H37Rv, 7 days, Middlebrook 7H9 with OADC and glycerol, read-out: MIC (dose-response); for MBC: H37RV, transfer to charcoal agar, additional 7 days
M. tuberculosis = conditions: 200 mg/kg, 14 days of dosing, published study; cited from earlier work
M. tuberculosis ΔcydA = assay type: cell-based
N. gonorrhoeae = assay type: cell-based
[7] = H37RV, read-out: MIC, ADC/GLU/TW
[8] = H37RV, read-out: MIC, DPPC/CAS/TX
[9] = H37RV, read-out: MIC, DPPC/Chol/BSA/TX
[10] = H37RV, read-out: MIC, GLU/BSA/TX
[11] = H37RV, read-out: MIC, GLU/CAS/TX

Row | SMILES | MIC (M. tuberculosis H37Rv [1]; [7]) [µM] | MIC (M. tuberculosis H37Rv [1]; [8]) [µM] | MIC (M. tuberculosis H37Rv [1]; [9]) [µM] | MIC (M. tuberculosis H37Rv [1]; [10]) [µM] | MIC (M. tuberculosis H37Rv [1]; [11]) [µM] | MIC90 (M. tuberculosis H37Rv [5]) [µM] | also measured
1 | COc1ncnn1-c1noc2c(F)c3c(cc12)CC1(C(=O)NC(=O)NC1=O)[C@H]1[C@H](C)O[C@H](C)CN31 [Compound 16] | 2 (≈ 0.971 µg/mL) | 12 (≈ 5.83 µg/mL) | 9.4 (≈ 4.56 µg/mL) | 12 (≈ 5.83 µg/mL) | 9.4 (≈ 4.56 µg/mL) |  | 
2 | CNc1ncnn1-c1noc2c(F)c3c(cc12)CC1(C(=O)NC(=O)NC1=O)[C@H]1[C@H](C)O[C@H](C)CN31 [Compound 17] | 0.9 (≈ 0.436 µg/mL) | 6.2 (≈ 3 µg/mL) | 6.2 (≈ 3 µg/mL) | 9.4 (≈ 4.55 µg/mL) | 3.1 (≈ 1.5 µg/mL) |  | 
3 | C[C@@H]1CN2c3c(cc4c(-n5cncn5)noc4c3Cl)CC3(C(=O)NC(=O)NC3=O)[C@H]2[C@H](C)O1 [Compound 18] | 0.49 (≈ 0.231 µg/mL) | 3.1 (≈ 1.46 µg/mL) | 1.6 (≈ 0.755 µg/mL) | 1.6 (≈ 0.755 µg/mL) | 0.78 (≈ 0.368 µg/mL) |  | 
4 | C[C@@H]1CN2c3c(cc4c(-n5ncnc5N5CCOC[C@H]5C)noc4c3F)CC3(C(=O)NC(=O)NC3=O)[C@H]2[C@H](C)O1 [Compound 19] | 16 (≈ 8.87 µg/mL) | > 50 | > 50 | > 50 | > 50 |  | 
5 | C[C@@H]1CN2c3c(cc4c(C5=N[C@H](C)[C@@H](C)N5)noc4c3F)CC3(C(=O)NC(=O)NC3=O)[C@H]2[C@H](C)O1 [Compound 20] | 5.5 (≈ 2.66 µg/mL) | 6.2 (≈ 3 µg/mL) | 6.2 (≈ 3 µg/mL) | 4.7 (≈ 2.28 µg/mL) | 3.1 (≈ 1.5 µg/mL) |  | 
6 | C[C@@H]1CN2c3c(cc4c(C5=N[C@H]6COC[C@H]6N5)noc4c3F)CC3(C(=O)NC(=O)NC3=O)[C@H]2[C@H](C)O1 [Compound 21] | 3.4 (≈ 1.69 µg/mL) | 9.4 (≈ 4.69 µg/mL) | 9.4 (≈ 4.69 µg/mL) | 6.2 (≈ 3.09 µg/mL) | 6.2 (≈ 3.09 µg/mL) |  | 
7 | C[C@@H]1CN2c3c(cc4c(N5CCN(C)C5=O)noc4c3F)CC3(C(=O)NC(=O)NC3=O)[C@H]2[C@H](C)O1 [Compound 23] | 4.3 (≈ 2.09 µg/mL) | 37 (≈ 18 µg/mL) | 12 (≈ 5.84 µg/mL) | 19 (≈ 9.24 µg/mL) | 6.2 (≈ 3.02 µg/mL) |  | 
8 | CC(=O)NCC1CN(c2cc3c(c(F)c2F)N2C[C@H](C)O[C@H](C)[C@H]2C2(C3)C(=O)NC(=O)NC2=O)C(=O)O1 (stereo partly shown) [Compound 24] | > 50 | > 50 | > 50 | > 50 | > 50 |  | activity in the M. tuberculosis MIC assays (M. tuberculosis H37Rv [1]; any of the MIC media): did not show activity at the highest concentration tested
9 | CC[C@@H](CO)NCCN[C@@H](CC)CO [Ethambutol, ethambutol, reference compound] |  |  |  |  |  |  | n, number of mice showing viable bacteria above the lower limit of detection/total number of animals tested (Mtb): 5/5; CFU decline in lung burdens relative to the untreated controls [2]: 2.6 log10 CFU
10 | NNC(=O)c1ccncc1 [Isoniazid, isoniazid] |  |  |  |  |  | 3.95 (≈ 0.542 µg/mL) | PrecA-LUX MIC (H37Rv (RecA)): ~ 7 μM; bioluminescence response in PiniB-LUX assay [3]: strong signal; bioluminescence response in PrecA-LUX assay ([4]; over 7 days): did not elicit significant luminescence; MBC relative to MIC (M. tuberculosis H37Rv [6]): less than 4 fold; MIC (M. tuberculosis H37Rv [6]): 4.61 µM (≈ 0.632 µg/mL); MBC (M. tuberculosis H37Rv [6]): 3.9 µM (≈ 0.535 µg/mL)
11 | C[C@H]1COc2c(N3CCN(C)CC3)c(F)cc3c(=O)c(C(=O)O)cn1c23 [Levofloxacin] |  |  |  |  |  | 0.49 (≈ 0.177 µg/mL) | 
12 | CC(=O)NC[C@H]1CN(c2ccc(N3CCOCC3)c(F)c2)C(=O)O1 [Linezolid, linezolid] |  |  |  |  |  |  | MBC relative to MIC (M. tuberculosis H37Rv [6]): greater than 4 fold; MIC (M. tuberculosis H37Rv [6]): 1.51 µM (≈ 0.509 µg/mL); MBC (M. tuberculosis H37Rv [6]): 7.8 µM (≈ 2.63 µg/mL)
13 | COc1c(N2C[C@@H]3CCCN[C@@H]3C2)c(F)cc2c(=O)c(C(=O)O)cn(C3CC3)c12 [Moxifloxacin, moxifloxacin] |  |  |  |  |  | 0.24 (≈ 0.0963 µg/mL) | PrecA-LUX MIC (H37Rv (RecA)): ~ 0.19 μM; n, number of mice showing viable bacteria above the lower limit of detection/total number of animals tested (Mtb): 3/6; PrecA-LUX signal higher than for 22 ([4]; at 0.5× MIC): ~6 fold; CFU reduction (M. tuberculosis): 3.3 log10 CFU; MIC (M. tuberculosis H37Rv [6]): 0.38 µM (≈ 0.153 µg/mL); MBC (M. tuberculosis H37Rv [6]): 0.78 µM (≈ 0.313 µg/mL); MIC (M. tuberculosis H37Rv [1]; H37Rv, 7H9 medium with DPPC/Casitone/tyloxapol, read-out: MIC, DPPC/CAS/TX): 0.2 µM (≈ 0.0803 µg/mL); MIC (M. tuberculosis H37Rv [1]; H37Rv, 7H9 medium with albumin-dextrose catalase/glucose/Tween, read-out: MIC, ADC/GLU/TW): 0.17 µM (≈ 0.0682 µg/mL); MIC (M. tuberculosis H37Rv [1]; H37Rv, 7H9 medium with glucose/BSA/tyloxapol, read-out: MIC, GLU/BSA/TX): 0.3 µM (≈ 0.12 µg/mL)
14 | CO[C@H]1/C=C/O[C@@]2(C)Oc3c(C)c(O)c4c(O)c(c(/C=N/N5CCN(C)CC5)c(O)c4c3C2=O)NC(=O)/C(C)=C\C=C\[C@H](C)[C@H](O)[C@@H](C)[C@@H](O)[C@@H](C)[C@H](OC(C)=O)[C@@H]1C [Rif, rifampicin] |  |  |  |  |  | 0.002 (≈ 0.00165 µg/mL) | MIC90, ΔcydA (M. tuberculosis ΔcydA): 0.0046 µM (≈ 0.00379 µg/mL)
15 | CC(C)=CCC/C(C)=C/CNCCNC1C2CC3CC(C2)CC1C3 (stereo not shown) [SQ109] |  |  |  |  |  | 0.49 (≈ 0.162 µg/mL) | 
16 | C[C@@H]1CN2c3c(cc4c(N5C(=O)OC[C@@H]5C)noc4c3F)CC3(C(=O)NC(=O)NC3=O)[C@H]2[C@H](C)O1 [Zoliflodacin, zoliflodacin, reference compound] | 6.4 (≈ 3.12 µg/mL) | 19 (≈ 9.26 µg/mL) | 19 (≈ 9.26 µg/mL) | 12 (≈ 5.85 µg/mL) | 19 (≈ 9.26 µg/mL) |  | MIC against N. gonorrhoeae lower than that for 22 (N. gonorrhoeae): 8 fold
